Marks after values point to notes of the source that are not given here.
Assays:
Type in all cases: in vivo
Kunming mice [1] = assay: Influence on hypnosis effect with pentobarbital sodium doses below the threshold (25 mg/kg i.p.); details: pentobarbital sodium 25 mg/kg i.p. 60 min later, sleep observed in 30 min, n = 10
Excerpt: (§1) 1.1 Animals for experiments: Kunming mice, weighting 18.9˜22.2 g for females, and 20.2˜23.0 g for males, licensed under SCXK-(Ji) 2007-0003, and provided by The experimental animal centre, Jilin University.
(§2) 1.2 Chemicals for experiments: The flavone derivatives provided in Examples 1-41 and the flavanone derivatives provided in Examples 42-71 are all formulated with 0.5% sodium carboxymethyl cellulose as solutions with required concentrations.
(§3) 1.3 Grouping of animals: 6420 animals are employed in the entire experiments and 2140 of the animals are randomly divided into 214 groups by gender, and the […] include: control group, low dosage group for each experimental drugs (25 mg/kg), medium dosage group for each experimental drugs (50 mg/kg), and high dosage group for each experimental drugs (100 mg/kg). Each group has 10 animals and either female or male constitutes half of the group. The groups are used in behavior observation and voluntary action observation. The other 4280 animals are randomly divided into 214 groups by gender respectively (the grouping way is the same with that described above). Each group has 20 animals and either female or male constitutes half of the group. In each group, 10 animals are used in hypnosis experimentations with pentobarbital sodium doses below the threshold, and the other 10 animals are used hypnosis experimentations with pentobarbital sodium doses at the threshold.
1.5.3 Influence on Hypnosis Effect with Mice Pentobarbital Sodium Doses Below the Threshold
(§4) The drug is intragastric administered in mice for single time, 2 animals of each group are given drug per round with the dosing interval of 40 min (±5 min). According to the administration round, in 60 min (±5 min) of each round after the drug administration, the animals were intraperitoneally injected 0.3% sodium pentobarbital 25 mg/kg, respectively. Sleep condition of the animals were observed within 30 min (under sleep determination standard of loss of righting reflex more than 1 min). After animals undergo loss of righting reflex, number of the animals is recorded, to calculate sleep percentage.
(§5) Number of autonomic activities is detected by leneve Test for homogeneity of variance. If the homogeneity of variance is good (P>0.05), statistical analysis is performed with ANOVA. If ANOVA have statistical significance (P≦0.05), Dunnett's test for multiple comparisons analysis is performed. Number of animals of sleeping mice is applied of ANOVA. Incidence rate of animal asleep is applied of χ2 test. Sleep latency and sleep duration are recorded in min, averaged by group, represented by standard deviation, and undergo statistical analysis using ANOVA.

Kunming mice [2] = assay: Influence on autonomic activity of normal mice (ZIL-2 mice autonomic activity meter, counts within 10 min); details: intragastric, x ± s, n = 10; for Times of activities in 1 h after drug administration/10 min: 1 h after administration; for Times of activities in 2 h after drug administration/10 min: 2 h after administration; for Times of activities in 24 h after drug administration/10 min: 24 h after administration
Excerpt: as §1, §2, §3
1.4 Experimental instrument and agents: ZIL-2 mice autonomic activity meter, production of Institute of Materia Medica of Chinese Academy of Medical Sciences; pentobarbital sodium, Lot: 100808, 25 g/bottle, Beijing Chemical Reagent Company equipment imported from Germany.
1.5.2 Influence on Autonomic Activity of Normal Mice
After observing the general behavior, in 1 h, 2 h and 24 h after drug administration, respectively, ZIL-2 mice autonomic activity meter is put respectively. Number of autonomic activities of each group of mice is measured within 10 min. Results among groups are compared.
as §5

Kunming mice [3] = assay: Influence on hypnosis effect with pentobarbital sodium doses at the threshold (50 mg/kg i.p.); details: pentobarbital sodium 50 mg/kg i.p. 60 min later, x ± s, n = 10
Excerpt: as §1, §2, §3
1.5.4 Influence on Hypnosis Effect with Mice Pentobarbital Sodium Doses at the Threshold
as §4, with “50” for “25”, “Time to fall asleep (sleep latency) and sleep duration” for “Sleep condition”, “recorded” for “observed”, “under” for “30 min (under”, “min.” for “min). After animals undergo loss of righting reflex, number of the animals is recorded, to calculate sleep percentage.”
as §5

[4] = test drug 25 mg/kg intragastric single dose
[5] = test drug 50 mg/kg intragastric single dose
[6] = test drug 100 mg/kg intragastric single dose
[7] = 25 mg/kg intragastric single dose
[8] = 50 mg/kg intragastric single dose
[9] = 100 mg/kg intragastric single dose

SMILES	Number of sleeping animals (Kunming mice [1]; [4])	rate of sleeping (%) (Kunming mice [1]; [4])	Number of sleeping animals (Kunming mice [1]; [5])	rate of sleeping (%) (Kunming mice [1]; [5])	Number of sleeping animals (Kunming mice [1]; [6])	rate of sleeping (%) (Kunming mice [1]; [6])	Times of activities in 1 h after drug administration/10 min (Kunming mice [2]; 25 mg/kg)	Times of activities in 2 h after drug administration/10 min (Kunming mice [2]; 25 mg/kg)	Times of activities in 24 h after drug administration/10 min (Kunming mice [2]; 25 mg/kg)	Times of activities in 1 h after drug administration/10 min (Kunming mice [2]; 50 mg/kg)	Times of activities in 2 h after drug administration/10 min (Kunming mice [2]; 50 mg/kg)	Times of activities in 24 h after drug administration/10 min (Kunming mice [2]; 50 mg/kg)	Times of activities in 1 h after drug administration/10 min (Kunming mice [2]; 100 mg/kg)	Times of activities in 2 h after drug administration/10 min (Kunming mice [2]; 100 mg/kg)	Times of activities in 24 h after drug administration/10 min (Kunming mice [2]; 100 mg/kg)	duration of sleep (Kunming mice [3]; [7]) [min]	time to sleep (Kunming mice [3]; [7]) [min]	duration of sleep (Kunming mice [3]; [8]) [min]	time to sleep (Kunming mice [3]; [8]) [min]	duration of sleep (Kunming mice [3]; [9]) [min]	other results
COc1cc(C2Oc3c(OC)c(OC)c(OC)c(O)c3C(=O)C2OC)c(OC)c(OC)c1OC (stereo not drawn) [Example 68, 5-hydroxyl-3,6,7,8,3′,4′,5′,6′-octa methoxyl-flavanone]	3	30%	4	40* %	6	60** %	287.3 ± 47.9 /10 min	267.7 ± 40.4 /10 min	322.9 ± 76.0 /10 min	248.2 ± 57.4 /10 min	243.2 ± 54.6 /10 min	319.6 ± 75.9 /10 min	128.2 ± 30.9 /10 min	241.7 ± 40.9 /10 min	298.1 ± 80.2 /10 min	20.69 ± 25.22	5.36 ± 2.23	29.78 ± 28.77	5.09 ± 2.44	64.55 ± 47.91	time to sleep (Kunming mice [3]; [9]): 3.31 ± 1.14 min
C=Cc1cc2c(=O)cc(-c3ccc(CC)c(N)c3)oc2c(C2CCSC2)c1C(N)=O (stereo not drawn) [Example 30]	5	50** %	6	60** %	8	80*** %	289.2 ± 45.7 /10 min	264.1 ± 42.2 /10 min	302.2 ± 87.3 /10 min	235.8 ± 42.1 /10 min	244.5 ± 48.2 /10 min	294.5 ± 70.6 /10 min	134.6 ± 35.7 /10 min	173.5 ± 39.2 /10 min	288.8 ± 92.1 /10 min	38.82 ± 15.41	4.37 ± 1.58	43.66 ± 21.43	3.73 ± 1.22	58.74 ± 19.57	time to sleep (Kunming mice [3]; [9]): 3.25 ± 1.31 min
C=Cc1ccc(-c2cc(=O)c3cc(C#N)c(Cc4ccccc4)c(C=CC)c3o2)cc1[N+](=O)[O-] [Example 32]	3	30%	5	50** %	6	60** %	332.1 ± 47.8 /10 min	321.3 ± 53.9 /10 min	327.8 ± 93.9 /10 min	270.2 ± 59.3 /10 min	269.3 ± 50.3 /10 min	334.7 ± 95.6 /10 min	245.9 ± 38.8 /10 min	258.9 ± 49.9 /10 min	322.7 ± 88.5 /10 min	25.80 ± 22.64	5.38 ± 2.21	46.11 ± 24.53	4.34 ± 1.45	54.78 ± 20.89	time to sleep (Kunming mice [3]; [9]): 3.86 ± 2.35 min

From patent publication US9669003B2, “Use of flavone and flavanone derivatives in preparation of sedative and hypnotic drugs” (priority 2012, dated 2017)
